Test results: patent US12011455B2, “Enhancing plasmin activity to prevent soft tissue calcification” (Vanderbilt University, priority 2016, dated 2024)

Test system: CTX-injured skeletal muscle of mice
Assay: Cardiotoxin-induced muscle injury model, radiographic/μCT soft tissue calcification and HO
Format: in vivo, mouse
Settings: Plg+/− mice, 7 DPI, vs control
Procedure: Cardiotoxin-Induced Muscle Injury Model: Skeletal muscle injury was induced by an intramuscular injection of 40 μL of 10 nM Cardiotoxin (CTX, Accurate Chemical and Scientific Corp; Westbury, NY) in the posterior compartments of the lower extremities of male C57/B6 mice. Briefly, following anesthetization with Isoflurane, CTX was injected into the lateral aspect of the posterior compartment using a 28.5 G, 0.5 cc insulin syringe. The CTX induces massive local myocyte depolarization, leading to myocyte death. However, muscle resident stem cells are unaffected by the CTX, thereby allowing for muscle regeneration following injury. […]
Radiographic Analysis and Quantification of HO: Quantification was performed as described. […] These images underwent post-image standardization and were quantified with the previously validated heterotopic ossification scoring scale. […] A blinded reviewer assessed all scores (a score of 1=0-24%, a score of 2=25%-49%, a score of 3=50%-74%, and a score of 4=>75% of the lower extremity containing radiographically evident HO).
Ex vivo μCT Imaging and Quantification of HO: μCT mages were acquired (μCT40, Scanco Medical AG, Bassersdorf, Switzerland) following specimen harvest of injured hindlimbs at 55 kVp, 145 uA, 200 ms integration, 500 projections per 180° rotation, with a 20 μm isotropic voxel size. […] Mineral volume was then calculated using the Scanco evaluation software.

Fbg^ASO: Fibrinogen antisense oligonucleotide GCTTTGATCAGTTCTTTGGC; phosphorothioate backbone, 2′ O methoxyethyl wings (all phosphorothioate, sugars by position and methylation of C not given here; 2'-O-methoxyethyl wings)
soft tissue calcification after CTX injury (μCT/radiographs): failed to prevent soft tissue calcification
soft tissue calcification after CTX injury (μCT/radiographs) (listed as fibrinogen^ASO): marked soft tissue calcification formation
